Assay results: patent publication US6787653B2, “Preparation process of biphenylcarboxylic acid amide derivatives” (Kowa Co., Ltd., priority 2002, dated 2004)
pIC50: −log10 of the molar value. Structures can show the parent of a compound that is named as a salt.

Key:
[1] = test system: IgE antibody production by B cells; assay: Evaluation of inhibitory activity against IgE antibody production; type: cell-based; settings: B-cell; mouse (Balb/C) spleen B cells cultured with LPS and mouse IL-4; IgE in culture supernatant by ELISA
Procedure: After the spleen was enucleated from a mouse (Balb/C, male, aged 8 weeks) and shredded in 0.3 wt. % BSA/HBSS, single cells were obtained using a 200-mesh screen. The single cells were then hemolyzed by a 0.75 wt. % ammonium chloride·17 mmol/L Tris solution and a splenocyte suspension (1×10^7/mL) was prepared using RPMI 1640 medium/25 mmol/L HEPES/0.3 wt. % BSA. After the suspension was reacted with a rat anti-mouse Thy-1,2 monoclonal antibody (product of Cedarlane Co.) at 4° C. for 1 hour, the reaction mixture was centrifuged and the sediment cells were suspended again (1×10^7/mL, RPMI/HEPES/BSA). After the suspension-was reacted with a low-cytotoxic rabbit complement (product of Cedarlane Co.) at 37° C. for 1 hour, killed cells were removed by specific gravity centrifugation using lympholyte M (product of Cedarlane Co.) to obtain a B cell fraction as viable cells.
After culturing B cells ([…]) for one day together with LPS (E. coli 026:B6, product of DIFCO Co.) on a 96-well plate, mouse IL-4 (product of Genzyme Co.) was added. The mixture was cultured for further 7 days. Each test compound was added on the first day of the culture. After culturing, the amount of IgE antibody in a culture supernatant was assayed by ELISA, and the inhibitory activity of the test compound against production of an IgE antibody was calculated.

| melting point | pIC50 [1] | Compound |
| --- | --- | --- |
| 240 °C (dec.) |  | COc1cc(-c2ccc(C(=O)N3CCN(CCCN4CCN(C(=O)c5ccc(-c6cc(OC)c(C(C)=O)c(OC)c6)cc5)CC4)CC3)cc2)cc(OC)c1C(C)=O (as salt: hydrochloride) [Example 5, 1,3-Bis[4-[4-(4-acetyl-3,5-dimethoxyphenyl)benzoyl]-1-piperazinyl]propane Dihydrochloride] |
|  | 6.40 | CCOc1c(OC)cc(-c2ccc(C(=O)N3CCN(CCCN4CCN(C(=O)c5ccc(-c6cc(OC)c(OCC)c(OC)c6)cc5)CC4)CC3)cc2)cc1OC [Example 4, 1,3-Bis[4-[4-(4-ethoxy-3,5-dimethoxyphenyl)benzoyl]-1-piperazinyl]propane Dimethanesulfonate] |
| 235.5 °C (dec.) |  | COc1cc(-c2ccc(C(=O)N3CCN(CCCN4CCN(C(=O)c5ccc(-c6cc(OC)c(OC(C)C)c(OC)c6)cc5)CC4)CC3)cc2)cc(OC)c1OC(C)C (as salt: methanesulfonate) [Example 2, 1,3-Bis [4-[4-(4-isopropoxy-3,5-dimethoxyphenyl)benzoyl]-1-piperazinyl]propane Dimethanesulfonate] |
|  | 6.70 | COc1cc(-c2ccc(C(=O)N3CCN(CCCN4CCN(C(=O)c5ccc(-c6cc(OC)c(OC(C)C)c(OC)c6)cc5)CC4)CC3)cc2)cc(OC)c1OC(C)C [Example 2, 1,3-Bis [4-[4-(4-isopropoxy-3,5-dimethoxyphenyl)benzoyl]-1-piperazinyl]propane Dimethanesulfonate] |
| 245 °C (dec.) |  | CCOc1c(OC)cc(-c2ccc(C(=O)N3CCN(CCCN4CCN(C(=O)c5ccc(-c6cc(OC)c(OCC)c(OC)c6)cc5)CC4)CC3)cc2)cc1OC (as salt: methanesulfonate) [Example 4, 1,3-Bis[4-[4-(4-ethoxy-3,5-dimethoxyphenyl)benzoyl]-1-piperazinyl]propane Dimethanesulfonate] |
|  | 6.52 | CCCOc1c(OC)cc(-c2ccc(C(=O)N3CCN(CCCN4CCN(C(=O)c5ccc(-c6cc(OC)c(OCCC)c(OC)c6)cc5)CC4)CC3)cc2)cc1OC [Example 6, 1,3-Bis[4-[4-(3,5-dimethoxy-4-propoxyphenyl)benzoyl]-1-piperazinyl]propane Dihydrochloride] |
|  | 7.00 | COc1cc(-c2ccc(C(=O)N3CCN(CCCN4CCN(C(=O)c5ccc(-c6cc(OC)c(OC)c(OC)c6)cc5)CC4)CC3)cc2)cc(OC)c1OC [Example 1, 1,3-Bis[4-[4-(3,4,5-trimethoxyphenyl)benzoyl]-1-piperazinyl]propane Dihydrochloride] |
|  | 6.22 | COc1cc(-c2ccc(C(=O)N3CCN(CCCN4CCN(C(=O)c5ccc(-c6cc(OC)c(C(C)=O)c(OC)c6)cc5)CC4)CC3)cc2)cc(OC)c1C(C)=O [Example 5, 1,3-Bis[4-[4-(4-acetyl-3,5-dimethoxyphenyl)benzoyl]-1-piperazinyl]propane Dihydrochloride] |
|  | 7.10 | COc1cc(-c2ccc(C(=O)N3CCN(CCCN4CCN(C(=O)c5ccc(-c6cc(OC)c(SC)c(OC)c6)cc5)CC4)CC3)cc2)cc(OC)c1SC [Example 3, 1,3-Bis[4-[4-(3,5-dimethoxy-4-methylthiophenyl)benzoyl]-1-piperazinyl]propane Dihydrochloride] |
| 266 °C (dec.) |  | CCCOc1c(OC)cc(-c2ccc(C(=O)N3CCN(CCCN4CCN(C(=O)c5ccc(-c6cc(OC)c(OCCC)c(OC)c6)cc5)CC4)CC3)cc2)cc1OC (as salt: hydrochloride) [Example 6, 1,3-Bis[4-[4-(3,5-dimethoxy-4-propoxyphenyl)benzoyl]-1-piperazinyl]propane Dihydrochloride] |
